This note sets out measurements from US20230000812A1, “IBUPROFEN ESTER PRODRUG, PHARMACEUTICAL COMPOSITION, PREPARATION METHOD AND APPLICATION” (NANJING HERON PHARMACEUTICAL SCIENCE AND TECHNOLOGY CO., …, priority 2020, published 2023).

Read-outs that look alike come from different tables or passages of the source.

A short description of data set [1]: In vitro human plasma metabolism (enzymolysis kinetics test in human plasma). To be noted: for metabolic rate (hydrolysis rate) in human plasma: 0-120 min, FIG. 1 and 2; for degradation rate of the peaks in human plasma: liquid chromatograms, FIG. 3-5.
Experimental: The test scheme was as follows.
The test method was as follows:
(§2) (1) a stock solution of Compound NX (where X represents a different compound number) of the present application in pure acetonitrile (40 mM) was prepared, a stock solution of flurbiprofen axetil in pure acetonitrile (40 mM) was prepared, and a stock solution of ibuprofen in pure acetonitrile (40 mM) was prepared.
(§3) (2) the stock solution of flurbiprofen axetil/ibuprofen (25 μL) was mixed with 1 mL of human plasma and vortexed for 30 s. A sample (200 μL) was taken, added with 800 μL of acetonitrile to precipitate proteins and vortexed for 1 min, and the reaction was stopped as a flurbiprofen axetil/ibuprofen control; and the stock solution of the compound of the present application (40 mM) and the stock solution of flurbiprofen axetil (40 mM) were diluted 200 times separately as prodrug controls;
(§4) (4) the stock solution of the compound of the present application in pure acetonitrile (100 μL) and the stock solution of flurbiprofen axetil in pure acetonitrile (100 μL) were mixed with 4 mL of human plasma, separately, vortexed for 30 s, and placed in an oscillating constant temperature water bath heater at 37° C. and oscillated at 200 rpm;
(§5) (6) the samples were centrifuged at 12000 rpm for 10 min at 4° C., the supernatant was taken and injected at a volume of 30 μL (through a filter membrane), and changes of a peak area were recorded;
For data set [2] the following is noted: human, 0.98 mM; for Amount of Active Metabolites Produced (%): 120 min; for Remaining Amount of the Prodrug Compound (%): plasma, 2 h.
Experimental: The test scheme was as follows.
The test method was as follows:
as §2, §3, §4, §5
The nature of data set [3]: Stability of dextrorotatory enantiomers in solvents (MCT, soybean oil, phosphate buffer of Tween 80) at 80° C. Type of data set: physicochemical. To be noted: for purity of the isomer: oil phase or water phase; for purity of the isomer / related substances in the oil phase / content of the related substance in the water phase: 10 days. As to the method: Samples were placed at 80° C., and samples were taken on Day 0, 5, and 10 to determine the purity of the compounds and changes of the related substance (ibuprofen) and an isomer (levorotatory).
4.2 Determination of the related substance in accordance with high-performance liquid chromatography (Chinese Pharmacopoeia 2015 Edition General Rules 0512)
(1) Chromatographic conditions: Chromatographic column: Agilent ZORBAX SB-C8, 4.6 mm×250 mm, 5 μm; mobile phase: 0.1% phosphoric acid solution-acetonitrile (50:50); detection wavelength: 220 nm; flowrate: 1.0 mL per minute; column temperature: 40° C.
(§1) (2) Determination method: An appropriate amount of the substance was taken, accurately weighed, added with a diluent [anhydrous ethanol], shaken to be dissolved, quantitatively diluted into a solution of about 0.4 mg/mL, and vortexed for 30s. The solution was filtered with a PTFE filter membrane (0.22 μm, Jinteng) and the filtrate was used as the test solution, 10 μL was accurately measured into a liquid chromatograph and the chromatogram was recorded. In the chromatogram of the test solution, if there were impurity peaks, the results should be obtained by calculation according to a peak area normalization method.
4.3 Determination of the isomer in accordance with high-performance liquid chromatography (Chinese Pharmacopoeia 2015 Edition General Rules 0512)
as §1, with “Determination” for “(2) Determination”, “isomer” for “substance”, “[n-hexane-isopropanol (90:10)],” for “[anhydrous ethanol],”, “1.0” for “0.4”, “isomer” for “impurity”

Data set [4] is described as follows: Pharmacokinetics in rats after tail vein injection (Test Example 4). To be noted: rat, in vivo. The protocol: The whole blood was centrifuged at 8000 rpm for 5 min, and plasma samples were taken and stored at −80° C., separately.
Preparation of test solutions: the test solutions were administered through tail veins of rats at a volume of […].

The mark [5] stands for this setting: Phosphate buffer of Tween 80, 80° C., Day 0.
The mark [6] stands for this setting: Phosphate buffer of Tween 80, 80° C., Day 5.
Where [7] appears, read: Phosphate buffer of Tween 80, 80° C., Day 10.

In the case of `CC(C)Cc1ccc([C@H](C)C(=O)OC(C)OC(=O)OC(C)C)cc1` (stereo partly drawn) [Compound N2S], the “metabolic rate (hydrolysis rate) in human plasma” value (“metabolic rate (hydrolysis rate)” below) in data set [1] (human plasma) is reported as “relatively slow metabolic rates”. Besides, in data set [1] (human plasma, 37° C., 120 min), the “Remaining Amount of the Prodrug Compound (%)” value (shortened to “Remaining Amount … (%)”) came to 78.6 ± 2.6%. In addition, the “degradation rate of the peaks in human plasma” value (“degradation rate of the peaks” for short) in data set [1] is reported as “relatively slow degradation rate”.
Take `CC(C)Cc1ccc(C(C)C(=O)OC(C)OC(=O)OC(C)C)cc1` (stereo not drawn) [Compound N2]: in data set [2], the “Amount of Active Metabolites Produced (%)” value was 10.7 ± 0.4% and the “Remaining Amount … (%)” value came out at 87.4 ± 5.3%.
In the case of `CCOC(=O)OC(C)OC(=O)[C@@H](C)c1ccc(CC(C)C)cc1` (stereo partly drawn) [Compound N6S], the “Ibuprofen (%)” value in data set [3] (MCT, 80° C., Day 0) came to 0.03%; in data set [3] (MCT, 80° C., Day 5), 0.05%; in data set [3] (MCT, 80° C., Day 10) it was 0.06%; in data set [3] (setting [5]), 2.42%; in data set [3] (setting [6]) it was 10.24%; in data set [3] (setting [7]), 16.98%. Besides, the “Ibuprofen (%)” value in data set [3] (Soybean oil, 80° C., Day 0) came out at 0.03%; in data set [3] (Soybean oil, 80° C., Day 5) it was 0.08%; in data set [3] (Soybean oil, 80° C., Day 10), 0.16%. The “Isomer (%)” value in data set [3] (MCT, 80° C., Day 0) is 3.26%; in data set [3] (MCT, 80° C., Day 5), 3.47%; in data set [3] (MCT, 80° C., Day 10) it was 3.45%; in data set [3] (setting [5]) it was 3.68%; in data set [3] (setting [6]), 3.97%; in data set [3] (setting [7]) it was 3.88%. Also, the “Isomer (%)” value in data set [3] (Soybean oil, 80° C., Day 0) came to 3.26%; in data set [3] (Soybean oil, 80° C., Day 5), 3.21%; in data set [3] (Soybean oil, 80° C., Day 10) it was 3.20%. Moreover, the “Purity of related Main Peak (%)” value in data set [3] (MCT, 80° C., Day 0) came out at 99.89%; in data set [3] (MCT, 80° C., Day 5), 99.88%; in data set [3] (MCT, 80° C., Day 10), 99.87%; in data set [3] (setting [5]), 97.56%; in data set [3] (setting [6]) it was 89.66%; in data set [3] (setting [7]) it was 82.73%. For the same molecule, the “Purity of related Main Peak (%)” value in data set [3] (Soybean oil, 80° C., Day 0) was determined as 99.84%; in data set [3] (Soybean oil, 80° C., Day 5) it was 99.79%; in data set [3] (Soybean oil, 80° C., Day 10), 99.47%. The “purity of the isomer” value in data set [3] (80° C.) is listed as “remains basically unchanged”. Further, the “related substances in the oil phase” value in data set [3] (80° C.) was “remain basically unchanged”. In addition, in data set [3] (80° C.), the “content of the related substance in the water phase” value was “increases”. Moreover, the “metabolic rate (hydrolysis rate)” value in data set [1] (human plasma) was “relatively fast metabolic rates close to that of S-FPA”. For the same molecule, the “Remaining Amount … (%)” value in data set [1] (human plasma, 37° C., 120 min) turned out to be 40.5 ± 1.6%.
For `CCOC(=O)OC(C)OC(=O)C(C)c1ccc(CC(C)C)cc1` (stereo not drawn) [Compound N6], the “Remaining Amount … (%)” value in data set [2] is 58.96 ± 3.1%.
On to `CCOC(=O)OC(CC)OC(=O)[C@@H](C)c1ccc(CC(C)C)cc1` (stereo partly drawn) [Compound N9S], for which the “Isomer (%)” value in data set [3] (MCT, 80° C., Day 0) is on record as 0.95%; in data set [3] (MCT, 80° C., Day 5), 0.95%; in data set [3] (MCT, 80° C., Day 10), 0.94%; in data set [3] (setting [5]), 0.86%; in data set [3] (setting [6]), 1.19%; in data set [3] (setting [7]) it was 1.78%. The “Isomer (%)” value in data set [3] (Soybean oil, 80° C., Day 0) was found to be 0.91%; in data set [3] (Soybean oil, 80° C., Day 5), 0.90%; in data set [3] (Soybean oil, 80° C., Day 10), 0.97%. Besides, the “Purity of related Main Peak (%)” value in data set [3] (MCT, 80° C., Day 0) was 99.80%; in data set [3] (MCT, 80° C., Day 5), 99.78%; in data set [3] (MCT, 80° C., Day 10), 99.66%; in data set [3] (setting [5]), 99.03%; in data set [3] (setting [6]) it was 92.78%; in data set [3] (setting [7]) it was 87.97%. Also, the “Purity of related Main Peak (%)” value in data set [3] (Soybean oil, 80° C., Day 0) is listed as 99.85%; in data set [3] (Soybean oil, 80° C., Day 5), 99.57%; in data set [3] (Soybean oil, 80° C., Day 10), 99.38%. Further, the “Ibuprofen (%)” value in data set [3] (MCT, 80° C., Day 5) is listed as 0.02%; in data set [3] (MCT, 80° C., Day 10) it was 0.04%; in data set [3] (setting [5]), 0.63%; in data set [3] (setting [6]) it was 5.27%; in data set [3] (setting [7]), 8.76%; in data set [3] (Soybean oil, 80° C., Day 5), 0.09%. Moreover, the “Ibuprofen (%)” value in data set [3] (Soybean oil, 80° C., Day 10) worked out at 0.13%. The “purity of the isomer” value in data set [3] (80° C.) is on record as “remains basically unchanged”. Further, the “related substances in the oil phase” value in data set [3] (80° C.) was “remain basically unchanged”. The “content of the related substance in the water phase” value in data set [3] (80° C.) is recorded as “increases”. Moreover, the “metabolic rate (hydrolysis rate)” value in data set [1] (human plasma) is “relatively fast metabolic rates close to that of S-FPA”. Besides, the “Remaining Amount … (%)” value in data set [1] (human plasma, 37° C., 120 min) is given as 45.0 ± 2.1%.
On to `CCOC(=O)OC(CC)OC(=O)C(C)c1ccc(CC(C)C)cc1` (stereo not drawn) [Compound N9], for which the “AUC0-t compared with dexibuprofen salt solution directly injected” value in data set [4] is listed as “no significant difference”. Also, in data set [2], the “Amount of Active Metabolites Produced (%)” value turned out to be 20.3 ± 0.8% and the “Remaining Amount … (%)” value is 62.5 ± 1.3%.
For the molecule `CCC(OC(=O)OC(C)C)OC(=O)[C@@H](C)c1ccc(CC(C)C)cc1` (stereo partly drawn) [Compound N10S], the “metabolic rate (hydrolysis rate)” value in data set [1] (human plasma) is “relatively slow metabolic rates”.
Regarding `CC(=O)OC(C)OC(=O)C(C)c1ccc(-c2ccccc2)c(F)c1` (stereo not drawn) [FPA, flurbiprofen axetil, reference compound], in data set [1], the “Remaining Amount … (%)” value was 50.9 ± 2.5%.
With `CCOC(=O)O[C@H](C)OC(=O)[C@@H](C)c1ccc(CC(C)C)cc1` [N6(S)-1], the “degradation rate of the peaks” value in data set [1] was “different degradation rates”.
On to `CCOC(=O)O[C@@H](C)OC(=O)[C@@H](C)c1ccc(CC(C)C)cc1` [N6(S)-2], for which the “degradation rate of the peaks” value in data set [1] is reported as “different degradation rates”.
Turning to `CCOC(=O)O[C@@H](CC)OC(=O)[C@@H](C)c1ccc(CC(C)C)cc1` [N9(S)-2], in data set [1], the “degradation rate of the peaks” value is reported as “different degradation rates”.
For the molecule `CC(=O)OC(C)OC(=O)[C@@H](C)c1ccc(-c2ccccc2)c(F)c1` (stereo partly drawn) [S-FPA, reference compound], in data set [1] (human plasma, 37° C., 120 min), the “Amount of Active Metabolites Produced (%)” value is 44.3 ± 2.3% and the “Remaining Amount … (%)” value worked out at 37.4 ± 1.9%.
